Data taken from ChEMBL document CHEMBL3301361, “Experimental in vitro DMPK and physicochemical data on a set of publicly disclosed compounds”.
Values after ≈ are worked out from the molar mass of the structure shown.

What was measured:
in vitro [1] = conditions: SD, HW or BN, rat, plasma
[2] = human, plasma, 5 h
[3] = CD1, BC, CD1, NMRI, SCID, or Nd, rat, hepatocytes
in vitro [4] = conditions: human
physchem [5] = conditions: octan-1-ol/water, pH 7.4, LogD7.4
in vitro [6] = conditions: Beagle, dog, plasma
in vitro [7] = conditions: human, plasma, PPB
physchem [8] = assay: physchem
[9] = ASTRAZENECA: Third most basic pKa value (pKa B3) determined by absorption and potentiometric titration using standard methodology from Sirius Analytical. Experimental range Bases: >= 2.; assay type: physicochemical; conditions: read-out: pKa_B3
physchem [10] = assay: physchem; remark: listed apart in the source
in vitro [11] = conditions: hepatocytes
physchem [12] = conditions: pH 7.4 buffer
in vitro [13] = conditions: human, hepatocytes
physchem [14] = assay: physchem; remark: listed apart in the source
[15] = rat, plasma, 5 h
physchem [16] = assay: physchem; remark: listed apart in the source
[17] = dog, plasma, 5 h
in vitro [18] = conditions: Dunkin Hartley, guinea pig, plasma
in vitro [19] = conditions: mouse, plasma

`CC1(C)[C@H](NC(=O)/C(=N\OCc2cc(=O)c(O)cn2O)c2csc(N)n2)C(=O)N1OS(=O)(=O)O` showed a fraction unbound at 5 h (in vitro [1]) of 0.124 and a PPB [2] of 69.12%.
`COCCCC/C(=N\OCCN)c1ccc(C(F)(F)F)cc1` [FLUVOXAMINE] gave a PPB [2] of 75.55%.
For `O=C(O)C[C@H](O)C[C@H](O)/C=C/c1c(C2CC2)nc2ccccc2c1-c1ccc(F)cc1` [PITAVASTATIN], the fraction unbound at 5 h (in vitro [1]) was 0.0064, the CLint [3] was 7.11 microL/min/1E6 cells and the microsomal CLint (in vitro [4]; microsomes) was < 3 µL/min/mg. It also gave a logD (physchem [5]) of 0.91, a fraction unbound at 5 h (in vitro [6]) of 0.0293 and a fraction unbound at 5 h (in vitro [7]) of 0.02.
Compound `COc1cc2nc(-c3ccc(N4CCN(C)CC4)cc3)nc(NCCN3CCOCC3)c2cc1OC` has a pKa (physchem [8]) of 7.93, a pKa [9] of 5.6 and a pKa (physchem [10]) of 6.78.
With `N#Cc1cc(-c2n[nH]c(-c3ccncc3)n2)ccn1` [TOPIROXOSTAT] the PPB [2] was 84.9%, the hepatocyte CLint (in vitro [11]) was < 3 µL/min/1e6 cells and the microsomal CLint (in vitro [4]; liver microsomes) was 5 µL/min/mg.
Work on `Cc1ccc(-c2cc(C(F)(F)F)nn2-c2ccc(S(N)(=O)=O)cc2)cc1` [CELECOXIB] yielded a solubility thermodynamic (physchem [12]) of 2.2 µM (≈ 0.839 µg/mL), a PPB [2] of 98.94% and a logD (physchem [5]) of 3.42. For the same compound, the hepatocyte CLint (in vitro [13]) was 25.7 µL/min/1e6 cells.
`O=C(NCCc1ccccc1Cl)c1cc(-n2ncc(=O)[nH]c2=O)ccc1Cl` gave a fraction unbound at 5 h (in vitro [1]) of 0.0224, a PPB [2] of 97.2% and a hepatocyte CLint (in vitro [11]) of 8 µL/min/1e6 cells. It also gave a pKa (physchem [14]) of 6.1 and a logD (physchem [5]) of 1.29.
Work on `Oc1nc(-c2ccc(C(F)(F)F)cc2)nc2c1CSCC2` yielded a PPB [2] of 97.6%.
`COc1ccc([C@@H]2Sc3ccccc3N(CCN(C)C)C(=O)[C@@H]2OC(C)=O)cc1.Cl` [DILTIAZEM HYDROCHLORIDE] gave a PPB [2] of 35.46%.
With `O=C(NCc1cccnc1OCC(F)(F)F)c1cncc(-c2ccc(Cl)cc2)c1` the PPB [15] was 99.87%.
For `Fc1cccc(COc2ccc(Nc3ncnc4ccc(-c5cccc(N6CCOCC6)c5)cc34)cc2Cl)c1`, the CLint [3] was 44.67 microL/min/1E6 cells, the microsomal CLint (in vitro [4]; microsomes) was 63.1 µL/min/mg and the logD (physchem [5]) was 3.2.
Compound `OCCN1CCN(CCCN2c3ccccc3Sc3ccc(Cl)cc32)CC1` [PERPHENAZINE] has a fraction unbound at 5 h (in vitro [1]) of 0.0146 and a PPB [2] of 98.51%.
`CON=C(C(=O)N[C@@H]1C(=O)N2C(C(=O)O)=C(COC(C)=O)CS[C@H]12)c1csc(N)n1` showed a pKa (physchem [8]) of 2, a pKa (physchem [16]) of 9.43 and a pKa (physchem [14]) of 3.35.
`CSc1ccc2c(c1)N(CCC1CCCCN1C)c1ccccc1S2` (configuration not stated) [THIORIDAZINE] showed a PPB [15] of 99.3%, a hepatocyte CLint (in vitro [11]) of 114 µL/min/1e6 cells and a microsomal CLint (in vitro [4]; microsomes) of 50 µL/min/mg. The logD (physchem [5]) was 3.76 and the fraction unbound at 5 h (in vitro [7]) was 0.0037.
`CC1(C)S[C@@H]2[C@H](NC(=O)[C@H](N)c3ccc(O)cc3)C(=O)N2[C@H]1C(=O)O` [AMOXICILLIN] gave a pKa (physchem [8]) of 7.52, a pKa (physchem [16]) of 9.77 and a pKa (physchem [14]) of 4.03.
For `CCOc1ccc(-c2ccc(Cn3c(CC(C)(C)C(=O)O)c(SC(C)(C)C)c4cc(OCc5ccc(C)cn5)ccc43)cc2)cn1` [FIBOFLAPON], the hepatocyte CLint (in vitro [11]) was 6.92 µL/min/1e6 cells, the microsomal CLint (in vitro [4]; liver microsomes) was 9.77 µL/min/mg and the PPB [17] was 99.92%.
`Cc1ccc(S(=O)(=O)Nc2c(C(=O)N[C@@H](C)C(C)(C)C)c(C)nn2-c2ccccc2)cc1` showed a fraction unbound at 5 h (in vitro [18]) of 0.0818, a solubility thermodynamic (physchem [12]) of 1020 µM (≈ 465 µg/mL) and a PPB [2] of 98.89%. For the same compound, the PPB [15] was 95.82%, the logD (physchem [5]) was 1.44 and the fraction unbound at 5 h (in vitro [6]) was 0.0321.
Work on `O=C(c1ccc(OCCN2CCCCC2)cc1)c1c(-c2ccc(O)cc2)sc2cc(O)ccc12` [RALOXIFENE] yielded a solubility thermodynamic (physchem [12]) of 9.1 µM (≈ 4.31 µg/mL), a PPB ([15]; SD, HW or BN) of 99.5% and a hepatocyte CLint (in vitro [11]) of 30 µL/min/1e6 cells. It also gave a microsomal CLint (in vitro [4]; liver microsomes) of 21 µL/min/mg, a logD (physchem [5]) of 4.13 and a fraction unbound at 5 h (in vitro [6]) of 0.0057. The fraction unbound at 5 h (in vitro [7]) was 0.005.
Compound `Cc1ccc(C(=O)N(CCCN)[C@@H](c2nc3cc(Cl)ccc3c(=O)n2Cc2ccccc2)C(C)C)cc1` [ISPINESIB] has a PPB [2] of 99.4%.
`CCc1nc2cc(O)ccc2c(Oc2ccc(/C=C/C(=O)O)cc2)c1-c1ccccc1` showed a pKa (physchem [8]) of 5.51, a pKa (physchem [16]) of 7.81 and a pKa (physchem [14]) of 4.34. The logD (physchem [5]) was 3 and the fraction unbound at 5 h (in vitro [7]) was 0.0056.
With `COc1ccc([C@@H]2Sc3ccccc3N(CCN(C)C)C(=O)[C@@H]2OC(C)=O)cc1` [DILTIAZEM] the pKa (physchem [8]) was 8.08, the PPB [2] was 75.97% and the hepatocyte CLint (in vitro [11]) was > 150 µL/min/1e6 cells. It also gave a microsomal CLint (in vitro [4]; liver microsomes) of 43.6 µL/min/mg, a logD (physchem [5]) of 1.99 and a fraction unbound at 5 h (in vitro [6]) of 0.349. It also gave a hepatocyte CLint (in vitro [13]) of 9.33 µL/min/1e6 cells.
Work on `CCCCNc1cc(C(=O)O)cc(S(N)(=O)=O)c1Oc1ccccc1` [BUMETANIDE] yielded a pKa (physchem [8]) of 6.07, a fraction unbound at 5 h (in vitro [1]) of 0.0366 and a solubility thermodynamic (physchem [12]) of 1450 µM (≈ 527 µg/mL). For the same compound, the hepatocyte CLint (in vitro [11]) was 145 µL/min/1e6 cells, the pKa (physchem [16]) was 9.73 and the microsomal CLint (in vitro [4]; microsomes) was 4 µL/min/mg. It also gave a pKa (physchem [14]) of 3.49, a logD (physchem [5]) of -0.3 and a fraction unbound at 5 h (in vitro [7]) of 0.0156.
In the case of `O=C(NC[C@H]1CN(c2ccc(N3CCOCC3=O)cc2)C(=O)O1)c1ccc(Cl)s1` [RIVAROXABAN], the PPB [15] is reported as 94.56%.
`NCCc1ccc(O)c2nc(O)ccc12` gave a pKa (physchem [8]) of 7.7, a pKa (physchem [16]) of 10.2 and a pKa (physchem [14]) of 7.6.
`NCCc1ccc(O)c(O)c1F` showed a pKa (physchem [8]) of 8, a pKa (physchem [16]) of 10.3 and a pKa (physchem [14]) of 7.8.
In the case of `CN(C)CCNc1cc(-c2ccc(N3CCN(C)CC3)cc2)nc2ccccc12`, the pKa (physchem [8]) is reported as 8.94, the pKa [9] is reported as 7.31 and the pKa (physchem [10]) is reported as 7.96.
Work on `Nc1nc2ccc(OC(F)(F)F)cc2s1` [RILUZOLE] yielded a PPB [2] of 97.13%.
`COc1cc(-n2cnc3cc(-c4ccc(Cl)cc4)sc3c2=O)ccc1OC[C@H](O)C1CC1` gave a PPB [15] of 98.81%, a hepatocyte CLint (in vitro [11]) of 9.77 µL/min/1e6 cells and a fraction unbound at 5 h (in vitro [6]) of 0.0014. The fraction unbound at 5 h (in vitro [19]) was 0.0018 and the fraction unbound at 5 h (in vitro [7]) was 0.0021.
Compound `Cc1ccc(-c2ccc3c(ccc4sc5c(c43)NC[C@@H](C)NC5=O)n2)cn1` has a PPB [15] of 98.86%, a logD (physchem [5]) of 3.6 and a fraction unbound at 5 h (in vitro [19]) of 0.0229. The fraction unbound at 5 h (in vitro [7]) was 0.151.
Compound `O=C(Nc1c(Cl)cncc1Cl)c1ccc(OC(F)F)c(OCC2CC2)c1` [ROFLUMILAST] has a fraction unbound at 5 h (in vitro [1]) of 0.0114, a solubility thermodynamic (physchem [12]) of 1.1 µM (≈ 0.444 µg/mL) and a PPB [2] of 99.5%. For the same compound, the hepatocyte CLint (in vitro [11]) was > 150 µL/min/1e6 cells, the microsomal CLint (in vitro [4]; microsomes) was 5 µL/min/mg and the logD (physchem [5]) was 3.95.
